Experimental data published in US20070185153A1 (priority 2005, published 2007).
Structures can show the parent of a compound that is named as a salt. Where two headings read alike, the source gives them in different places.

Test system: panel of Gram-positive organisms and panel of Gram-negative organisms
Test: organism not typed
Type: cell-based
[1] = read-out: MIC (minimum inhibitory concentration)

Structure (SMILES)	MIC [1]	MIC (read-out: MIC values)
O=c1c(Cl)cc2ncc(F)c3c2n1CC3(O)CN1CCC(NCc2cc3c(cn2)OCCO3)CC1 (racemic) [Example 24, (4R/S)-8-Chloro-4-({4-[(2,3-dihydro[1,4]dioxino[2,3-c]pyridin-7-ylmethyl)amino]-1-piperidinyl}methyl)-3-fluoro-4-hydroxy-4,5-dihydro-7H-pyrrolo[3,2,1-de]-1,5-naphthyridin-7-one dihydrochloride]	≤ 4 µg/mL	
O=c1[nH]c2ccccc2nc1CNC1CCN(C[C@]2(O)Cn3c(=O)ccc4ncc(F)c2c43)CC1 [Example 38]	≤ 4 µg/mL	
O=c1[nH]c(CNC2CCN(C[C@]3(O)Cn4c(=O)ccc5ncc(F)c3c54)CC2)nc2ccccc12 [Example 39]	≤ 4 µg/mL	
CC(C)n1nnc2cc(CNC3CCN(C[C@]4(O)Cn5c(=O)ccc6ncc(F)c4c65)CC3)ccc21 [Example 47]	≤ 8 µg/mL	
COc1cnc2ccc(=O)n3c2c1[C@](O)(CN1CCC(NCc2cc4c(cn2)OCCO4)CC1)C3 [Example 65]	≤ 8 µg/mL	
COc1cnc2ccc(=O)n3c2c1[C@](O)(CN1CCC(NCc2cc4c(nn2)OCCO4)CC1)C3 [Example 66]		≥ 16 µg/mL
